Results reported in article PMC10229121, “An acetylation-mediated chromatin switch governs H3K4 methylation read-write capability” (eLife, 2023).

Tested on: histone H3.1 modifications in HEK-293 cells
Assay: Middle-down mass spectrometry of histone H3.1 from HEK-293 cells ± KDAC inhibition (H3K9 methylation, {K9ac, K14ac, K18ac} proteoforms, H3K4 methylation)
Format: cell-based
Details: for 3ac including {K9ac, K14ac, K18ac} / 4ac including {K9ac, K14ac, K18ac} / 5ac including {K9ac, K14ac, K18ac}: HEK-293, H3.1 butyrate treated; for H3K9me0 / H3K9me1 / H3K9me2 / H3K9me3: HEK-293, butyrate treated
Experimental: Figure 3. […] (A) Occupancy of H3K4 methyl states (me0-1-2-3) within each H3 acetyl state (0ac to 5ac) in asynchronous MCF-7 cells. (B) Occupancy of H3K4 methyl states within each H3 acetyl state after butyrate treatment (60 min). Asterisks represent p-values <0.05. […] Each spectrum is an average of MS2 spectra of the indicated H3 acetyl states after 60 min of butyrate treatment. K4 occupancy stoichiometry is directly correlated with H3 acetylation state and the targeted MS approach provides excellent signal-to-noise for confident quantitation. […] See Methods for further information on data acquisition and analysis. All data were collected in biological triplicate with error bars representing SEM. Figure 3—figure supplement 1. H3 acetylation states with sodium butyrate treatment. (A - B) Each acetyl state of acid-extracted H3 from 0ac to 5ac is represented as a percent of total H3 before/after 60 min treatment of asynchronous MCF-7 cells with 5 mM sodium butyrate. (C) Occupancy of H3K4 methyl states (me0-1-2-3) within each H3 acetyl state (0ac to 5ac) in asynchronous HEK-293 cells. (D) Occupancy of H3K4 methyl states within each H3 acetyl state after butyrate treatment (120 min) in asynchronous HEK-293 cells. (E) Percentage of (K9ac, K14ac, K18ac) proteoforms within 3ac to 5ac acetyl states of H3.1 ± butyrate treatment in HEK-293 cells. N=3 and error bars are SEM for all data. [drawing 3]
MCF-7 breast cancer cells (ATCC HTB-22) were grown in MEM (Gibco) supplemented with 10% fetal bovine serum (VWR), 100 I.U. penicillin, 100 µg/mL streptomycin (Corning), 0.01 mg/mL human recombinant insulin (Gibco), and 5 µg/mL plasmocin (Invivogen) at 37 °C and 5% CO2. HEK-293 (ATCC CRL-1573) was grown in DMEM (Gibco) supplemented with 10% fetal bovine serum (Corning), 100 I.U. penicillin, and 100 µg/mL streptomycin (Gibco) at 37 °C and 5% CO2. Both cell lines were authenticated via STR profiling and confirmed to be Mycoplasma negative.
For mass spectrometric (MS) analysis ± KDAC inhibition, cells were cultured in 150 mm dishes to ~80% confluence and treated with 5 mM sodium butyrate (or equivalent volume of water) in triplicate for 0, 10, 20, 30, 60, 120 min. […] Histones were acid extracted after nuclei isolation as described ([Holt et al., 2021]). Isolated histones were resuspended in 85 µL 5% acetonitrile, 0.2% trifluoroacetic acid (TFA), and resolved by offline high-performance liquid chromatography (HPLC) as described ([Holt et al., 2021]). […] After chromatographic separation and fraction collection, histone H3.1 was selected, diluted in 100 mM ammonium acetate (pH = 4), and digested with Glu-C protease (Roche) at 10:1 protein:enzyme for 1 hr at room temperature prior to mass spectrometric analysis.
The digested samples were diluted to 2 µg/µL. Online HPLC was performed on a U3000 RSLC nano Pro-flow system using a C3 column (Zorbax 300 SB-C3, 5 µm; Agilent). Samples were maintained at 4 °C and 1 µL injected for each analysis using a microliter pickup. […] The column eluant was introduced into an Orbitrap Fusion Lumos mass spectrometer (Thermo Fisher) by nano-electrospray ionization. A static spray voltage of 1900 V and an ion transfer tube temperature of 320 °C were set for the source.
A Fusion Lumos mass spectrometer was used to generate MS data. The 9th charge state of histone H3 was targeted for analysis. MS1 analysis was acquired in the orbitrap with a normal mass range and a 60 k resolution setting in positive ion mode. An Automatic Gain Control (AGC) target of 5.0E5 with a 200 ms maximum injection time, three microscans, and a scan range of 585–640 m/z was used to identify desired ions for fragmentation. MS2 acquisition was performed in both orbitrap and ion trap modes. Both modes used electron transfer dissociation (ETD), a reaction time of 18ms, and an injection time of 200 ms. […]

CCCC(=O)O [sodium butyrate]
3ac including {K9ac, K14ac, K18ac}: 1.6743 Percentage | 4ac including {K9ac, K14ac, K18ac}: 16.6357 Percentage | 5ac including {K9ac, K14ac, K18ac}: 100 Percentage | 3ac including {K9ac, K14ac, K18ac} (column 1 of 3): 1.334 Percentage | 4ac including {K9ac, K14ac, K18ac} (column 1 of 3): 17.3973 Percentage | 5ac including {K9ac, K14ac, K18ac} (column 1 of 3): 100 Percentage | 3ac including {K9ac, K14ac, K18ac} (column 2 of 3): 1.24 Percentage | 4ac including {K9ac, K14ac, K18ac} (column 2 of 3): 17.858 Percentage | 5ac including {K9ac, K14ac, K18ac} (column 2 of 3): 100 Percentage | H3K9me0 (0ac): 48.8895 Percentage | H3K9me1 (0ac): 7.899 Percentage | H3K9me2 (0ac): 29.443 Percentage | H3K9me3 (0ac): 13.7682 Percentage | H3K9me0 (0ac, column 1 of 3): 54.4348 Percentage | H3K9me1 (0ac, column 1 of 3): 4.2113 Percentage | H3K9me2 (0ac, column 1 of 3): 27.4814 Percentage | H3K9me3 (0ac, column 1 of 3): 13.8725 Percentage | H3K9me0 (0ac, column 2 of 3): 51.9841 Percentage | H3K9me1 (0ac, column 2 of 3): 5.137 Percentage | H3K9me2 (0ac, column 2 of 3): 26.9782 Percentage | H3K9me3 (0ac, column 2 of 3): 15.9004 Percentage | H3K9me0 (1ac): 27.5434 Percentage | H3K9me1 (1ac): 15.9623 Percentage | H3K9me2 (1ac): 38.0917 Percentage | H3K9me3 (1ac): 17.0037 Percentage | H3K9me0 (1ac, column 1 of 3): 28.711 Percentage | H3K9me1 (1ac, column 1 of 3): 14.4169 Percentage | H3K9me2 (1ac, column 1 of 3): 39.3301 Percentage | H3K9me3 (1ac, column 1 of 3): 15.8799 Percentage | H3K9me0 (1ac, column 2 of 3): 28.8744 Percentage | H3K9me1 (1ac, column 2 of 3): 14.4284 Percentage | H3K9me2 (1ac, column 2 of 3): 38.0038 Percentage | H3K9me3 (1ac, column 2 of 3): 16.6818 Percentage | H3K9me0 (2ac): 27.9258 Percentage | H3K9me1 (2ac): 21.3235 Percentage | H3K9me2 (2ac): 37.139 Percentage | H3K9me3 (2ac): 9.818 Percentage | H3K9me0 (2ac, column 1 of 3): 28.9582 Percentage | H3K9me1 (2ac, column 1 of 3): 21.0866 Percentage | H3K9me2 (2ac, column 1 of 3): 35.8684 Percentage | H3K9me3 (2ac, column 1 of 3): 10.0575 Percentage | H3K9me0 (2ac, column 2 of 3): 26.6449 Percentage | H3K9me1 (2ac, column 2 of 3): 22.0491 Percentage | H3K9me2 (2ac, column 2 of 3): 35.8906 Percentage | H3K9me3 (2ac, column 2 of 3): 10.993 Percentage | H3K9me0 (3ac): 21.6496 Percentage | H3K9me1 (3ac): 12.8486 Percentage | H3K9me2 (3ac): 25.9132 Percentage | H3K9me3 (3ac): 9.297 Percentage | H3K9me0 (3ac, column 1 of 3): 21.2886 Percentage | H3K9me1 (3ac, column 1 of 3): 12.9304 Percentage | H3K9me2 (3ac, column 1 of 3): 26.508 Percentage | H3K9me3 (3ac, column 1 of 3): 10.2618 Percentage | H3K9me0 (3ac, column 2 of 3): 21.713 Percentage | H3K9me1 (3ac, column 2 of 3): 11.1466 Percentage | H3K9me2 (3ac, column 2 of 3): 27.8034 Percentage | H3K9me3 (3ac, column 2 of 3): 10.4504 Percentage | H3K9me0 (4ac): 4.833 Percentage | H3K9me1 (4ac): 7.36 Percentage | H3K9me2 (4ac): 8.881 Percentage | H3K9me3 (4ac): 1.604 Percentage | H3K9me0 (4ac, column 1 of 3): 5.043 Percentage | H3K9me1 (4ac, column 1 of 3): 6.813 Percentage | H3K9me2 (4ac, column 1 of 3): 10.053 Percentage | H3K9me3 (4ac, column 1 of 3): 3.009 Percentage | H3K9me0 (4ac, column 2 of 3): 4.13 Percentage | H3K9me1 (4ac, column 2 of 3): 7.856 Percentage | H3K9me2 (4ac, column 2 of 3): 9.753 Percentage | H3K9me3 (4ac, column 2 of 3): 2.246 Percentage | H3K9me0 (5ac): 0 Percentage | H3K9me1 (5ac): 0 Percentage | H3K9me2 (5ac): 0 Percentage | H3K9me3 (5ac): 0 Percentage | H3K9me0 (5ac, column 1 of 3): 0 Percentage | H3K9me1 (5ac, column 1 of 3): 0 Percentage | H3K9me2 (5ac, column 1 of 3): 0 Percentage | H3K9me3 (5ac, column 1 of 3): 0 Percentage | H3K9me0 (5ac, column 2 of 3): 0 Percentage | H3K9me1 (5ac, column 2 of 3): 0 Percentage | H3K9me2 (5ac, column 2 of 3): 0 Percentage | H3K9me3 (5ac, column 2 of 3): 0 Percentage | H3K9me3 on hyperacetylated H3 proteoforms, in words (HEK-293, ± butyrate): H3K9me3 did not accumulate with hyperacetylated H3 proteoforms | {K9ac, K14ac, K18ac} in 5ac proteoforms, in words (HEK-293, ± butyrate): all penta-acetylated (5ac) H3 proteoforms consisted of acetylation at H3K9, K14, and K18 at minimum
